Assays:
Winter barley = assay: Post-emergence test, degree of damage to crop plants; assay type: in vivo; settings: rated about three weeks after application
Method: (§1) The active compound or safener components are in each case dissolved in a few ml (generally 2-3 ml) of solvent (generally acetone or N,N-dimethyl-formamide), and the solutions are combined and then—if appropriate after addition of an emulsifier—diluted with water to the desired concentration. In general, an aqueous spray liquor was prepared using 0.1% of the additive Renex-36.
(§2) The test plants are grown under controlled conditions (temperature, light, atmospheric humidity) in a greenhouse. The test plants are sprayed when they have reached a height of 5-15 cm. The concentration of the spray liquor is chosen such that the particular amounts of active compound desired are applied in 500 l of water/ha.
(§3) After spraying, the pots with the test plants are kept in a greenhouse chamber under controlled conditions (temperature, light, atmospheric humidity) until the test has ended. About three weeks after the application, the degree of damage to the crop plants is rated in % damage in comparison to the development of the untreated control.
(§4) The figures denote: • 0% no damage (like untreated control) • 100% total destruction/damage

Winter wheat = assay: as above; assay type: in vivo; settings: rated about three weeks after application
Method: as §1, §2, §3, §4

[1] = safener alone, application rate 50 g of ai/ha
[2] = application rate 250 g of ai/ha
[3] = application rate 125 g of ai/ha

Structure (SMILES)	Winter barley observed (% damage) (Winter barley; [1]) [%]	Winter wheat observed (% damage) (Winter wheat; [1]) [%]	Winter barley observed (% damage) (Winter barley; [2]) [%]	Winter wheat observed (% damage) (Winter wheat; [3]) [%]	Winter wheat observed (% damage) (Winter wheat; [2]) [%]	Winter barley observed (% damage) (Winter barley; application rate 60 g of ai/ha) [%]	Winter barley observed (% damage) (Winter barley; [3]) [%]	also measured
CCOC(=O)C1=NN(c2ccc(Cl)cc2Cl)C(C)(C(=O)OCC)C1 (stereo not drawn) [Mefenpyr-diethyl, diethyl 1-(2,4-dichloro-phenyl)-4,5-dihydro-5-methyl-1H-pyrazole-3,5-dicarboxylate, reference compound]	0	0	–	–	–	–	–	–
CCc1cc(Br)cc(CC)c1C1=C(O)C(C)(C(C)C)NC1=O (stereo not drawn) [Example I-1-a-3]	–	–	40	10	15	–	–	–
Cc1cc(-c2ccc(Cl)cc2)cc(C)c1C1=C(O)C2(CCOCC2)NC1=O [Example I-1-a-4]	–	–	35	–	–	5	35	–
CCCCCC(C)OC(=O)COc1ccc(Cl)c2cccnc12 (stereo not drawn) [cloquintocet-mexyl, 1-methyl-hexyl 5-chloro-quinolin-8-oxy-acetate, reference compound]	0	0	–	–	–	–	–	–
CCCC1(C)NC(=O)C(c2c(C)cc(C)cc2C)=C1O (stereo not drawn) [Example I-1-a-1]	–	–	–	–	–	–	–	Winter barley observed (% damage) (Winter barley; application rate 110 g of ai/ha): 10%; Winter barley observed (% damage) (Winter barley; application rate 220 g of ai/ha): 25%; Winter barley observed (% damage) (Winter barley; application rate 440 g of ai/ha): 70%
CCc1cc(Br)cc(C)c1C1=C(O)C2(CCC(C)CC2)NC1=O (stereo not drawn) [Example I-1-a-2]	–	–	65	10	40	5	20	–
